{"source": "paper PMC3334918", "about": "“Mutagenesis and Functional Studies with Succinate Dehydrogenase Inhibitors in the Wheat Pathogen Mycosphaerella graminicola” (PLoS ONE, 2012)", "key": {"[1]": {"molecular_target": "succinate dehydrogenase (SDH), WT (IPO323) (Zymoseptoria tritici (Mycosphaerella graminicola), UniProt F9X9V6+F9XG45+F9XH52)", "sequence (F9XG45 entry or part of it)": "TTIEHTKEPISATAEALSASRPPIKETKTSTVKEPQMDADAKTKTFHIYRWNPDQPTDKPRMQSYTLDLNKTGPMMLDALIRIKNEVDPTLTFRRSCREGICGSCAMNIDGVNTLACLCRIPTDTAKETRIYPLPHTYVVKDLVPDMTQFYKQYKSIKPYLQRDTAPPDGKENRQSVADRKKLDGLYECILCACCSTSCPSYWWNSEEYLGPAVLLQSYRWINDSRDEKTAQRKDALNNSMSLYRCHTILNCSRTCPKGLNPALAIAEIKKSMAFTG", "sequence (F9X9V6 entry or part of it)": "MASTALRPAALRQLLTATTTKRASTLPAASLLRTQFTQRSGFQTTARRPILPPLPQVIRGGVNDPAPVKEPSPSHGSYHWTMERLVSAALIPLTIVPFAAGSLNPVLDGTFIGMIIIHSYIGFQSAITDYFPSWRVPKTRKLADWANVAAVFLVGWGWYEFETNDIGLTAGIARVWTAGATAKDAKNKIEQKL", "sequence (F9XH52 entry or part of it)": "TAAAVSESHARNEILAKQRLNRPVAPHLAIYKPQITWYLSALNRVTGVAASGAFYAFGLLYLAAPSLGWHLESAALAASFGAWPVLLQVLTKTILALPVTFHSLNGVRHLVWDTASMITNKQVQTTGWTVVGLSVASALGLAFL", "experiment": "in vitro succinate: Q0/DCPIP activity test, purified mitochondria", "format": "biochemical", "settings": "±S.E. (triplicate), read-out: IC50 in vitro", "experimental": "(§1) To explore the sensitivity profiles conferred by amino acid substitutions at the cellular and mitochondrial level, we determined sensitivity towards 4 different compounds for 26 of the identified substitution types both in vivo using liquid culture growth (AE media) and in vitro using purified mitochondria and the succinate: Q0/DCPIP activity test (Table 3). […] Resistance factors (RF) were determined as the ratio IC50mutant/IC50WT. […] Qp site mutations are well known to influence SDH enzyme activity and stability upon catalysis, [13], [38], [41].\nStrains were grown in 1 liter TSM40 units. Cultures were inoculated at 0.05 OD600 nm and grown on a reciprocal shaker (110 rpm, 22°C) for 5 days. Cells were harvested by vacuum filtration and disrupted in liquid nitrogen using a mortar and pestle. Resultant powder was re-suspended to 10% w/v in mitochondrial extraction buffer (10 mM KHPO4 pH7.2; 10 mM KCl, 10 mM MgCl2, 0.5 M sucrose, 0.2 mM EDTA, 2 mM PMSF). Extract was clarified by centrifugation (5,000 g, 4°C for 10 minutes, 2 times), intact mitochondria were then pelleted at 10,000 g for 20 minutes at 4°C. […] This volume was transferred to conical 1.5 ml tubes and re-centrifuged, 10,000 g for 10 minutes at 4°C. […] Mitochondrial suspensions were brought to a final concentration of 10 mg ml^−1 in extraction buffer and stored at −80°C until used.\nMitochondrial suspensions were incubated at 30°C for 30 minutes in extraction buffer supplemented with 10 mM succinate prior to enzymatic measurements.\nA reaction plate was equilibrated for 10 minutes at 30°C before starting the reaction. DCPIP reduction was conducted at 30°C and monitored at 595 nm using a HTS7000 microtiterplate reader (Perkin Elmer). For calculations a molecular extinction coefficient of ε = 17 mM^−1 cm^−1 was used.\nInhibitor concentrations ranged between 1 mM and 0.95 nM with uniform 4× dilution factor steps (11 inhibitor concentrations+DMSO control). 96 wells plates were pre equilibrated at reaction temperature (30°C) for 10 minutes before the reactions were started by the addition of 5 µl preactivated M. graminicola mitochondrial suspension. Calculated absorbance slopes (OD/hour) were used for IC50 calculations using Graphpad Prism 5.0 software non linear curve fitting against log inhibitor concentrations."}, "[2]": {"test_system": "M. graminicola strain Cbx101 (SDHD_D129S)", "experiment": "in vivo sensitivity, liquid culture growth (AE media)", "format": "cell-based, Mycosphaerella graminicola", "settings": "D_D129S, ratio IC50mutant/IC50WT", "experimental": "as §1\n(§2) Conidial cells were collected from 4 day old V8 agar plates (cultured at 18°C in the dark) using liquid AE and a cell spreader. Cell density was determined and cells re-suspended to a concentration of 5×10^5 cells ml^−1 in AE media. Sterile 96 wells microtiter plates with lids (Costar) were inoculated with 198 µl of this cell suspension (10^5 cells per well) and 2 µl of inhibitor (100× in DMSO). Final inhibitor concentrations were between 0.95 nM and 1 mM with uniform 4× dilution factor steps (11 inhibitor concentrations+1 DMSO control). Plates were incubated for 6 days at 19°C in the dark before cells were re-suspended and measured for growth (OD600 nm). IC50 values were determined by non linear curve fitting on the basis of measured OD values versus log inhibitor concentrations (GraphPad Prism 5.0 software)."}, "[3]": {"test_system": "M. graminicola strain Cbx106 (SDHB_N225H)", "experiment": "in vivo sensitivity, liquid culture growth (AE media)", "format": "cell-based, Mycosphaerella graminicola", "settings": "B_N225H, ratio IC50mutant/IC50WT", "experimental": "as §1, §2"}, "[4]": {"test_system": "M. graminicola strain Cbx28 (SDHB_H267Y)", "experiment": "in vivo sensitivity, liquid culture growth (AE media)", "format": "cell-based, Mycosphaerella graminicola", "settings": "B_H267Y, strain Cbx28; ratio IC50mutant/IC50WT", "experimental": "as §1, §2"}, "[5]": {"test_system": "M. graminicola strain Cbx29 (SDHB_H267L)", "experiment": "in vivo sensitivity, liquid culture growth (AE media)", "format": "cell-based, Mycosphaerella graminicola", "settings": "B_H267L, ratio IC50mutant/IC50WT", "experimental": "as §1, §2"}, "[6]": {"test_system": "M. graminicola strain Cbx56 (SDHB_R265P)", "experiment": "in vivo sensitivity, liquid culture growth (AE media)", "format": "cell-based, Mycosphaerella graminicola", "settings": "B_R265P, ratio IC50mutant/IC50WT", "experimental": "as §1, §2"}, "[7]": {"test_system": "M. graminicola strain Cbx76 (SDHC_H145R)", "experiment": "in vivo sensitivity, liquid culture growth (AE media)", "format": "cell-based, Mycosphaerella graminicola", "settings": "C_H145R, ratio IC50mutant/IC50WT", "experimental": "as §1, §2"}, "[8]": {"test_system": "M. graminicola strain Cbx96 (SDHB_H267N)", "experiment": "in vivo sensitivity, liquid culture growth (AE media)", "format": "cell-based, Mycosphaerella graminicola", "settings": "B_H267N, ratio IC50mutant/IC50WT", "experimental": "as §1, §2"}, "[9]": {"test_system": "M. graminicola strain Flu110 (SDHB_P220T)", "experiment": "in vivo sensitivity, liquid culture growth (AE media)", "format": "cell-based, Mycosphaerella graminicola", "settings": "B_P220T, ratio IC50mutant/IC50WT", "experimental": "as §1, §2"}, "[10]": {"test_system": "M. graminicola strain Flu4 (SDHC_A84V)", "experiment": "in vivo sensitivity, liquid culture growth (AE media)", "format": "cell-based, Mycosphaerella graminicola", "settings": "C_A84V, ratio IC50mutant/IC50WT", "experimental": "as §1, §2"}, "[11]": {"test_system": "M. graminicola strain Flu41 (SDHB_S218F)", "experiment": "in vivo sensitivity, liquid culture growth (AE media)", "format": "cell-based, Mycosphaerella graminicola", "settings": "B_S218F, ratio IC50mutant/IC50WT", "experimental": "as §1, §2"}, "[12]": {"test_system": "M. graminicola strain Flu7 (SDHB_N225I)", "experiment": "in vivo sensitivity, liquid culture growth (AE media)", "format": "cell-based, Mycosphaerella graminicola", "settings": "B_N225I, ratio IC50mutant/IC50WT", "experimental": "as §1, §2"}, "[13]": {"test_system": "M. graminicola strain Izm1 (SDHC_H152R)", "experiment": "in vivo sensitivity, liquid culture growth (AE media)", "format": "cell-based, Mycosphaerella graminicola", "settings": "C_H152R, ratio IC50mutant/IC50WT", "experimental": "as §1, §2"}, "[14]": {"test_system": "M. graminicola strain Izm7 (SDHC_N86K)", "experiment": "in vivo sensitivity, liquid culture growth (AE media)", "format": "cell-based, Mycosphaerella graminicola", "settings": "C_N86K, ratio IC50mutant/IC50WT", "experimental": "as §1, §2"}, "[15]": {"test_system": "M. graminicola strain Ol50 (SDHC_V88D)", "experiment": "in vivo sensitivity, liquid culture growth (AE media)", "format": "cell-based, Mycosphaerella graminicola", "settings": "C_V88D, ratio IC50mutant/IC50WT", "experimental": "as §1, §2"}, "[16]": {"test_system": "M. graminicola isolate IPO323", "experiment": "UV mutagenesis and selection of resistant colonies on carboxamide amended AE agar", "format": "cell-based, Mycosphaerella graminicola", "experimental": "Selection plates were produced after adding 1% of a 100× DMSO solution of the active ingredients to pre-melted AE-agar.\nCells were harvested from 4 days old V8 agar plates and conidial cells were suspended in liquid AE. 10^7 cells were spread onto carboxamide amended AE agar plates and mutagenized using UV Stratalinker 2400 (Stratagene) with 75 mJ cm^−2 or 50 mJ cm^−2. […] Selection plates were incubated in the dark at 20°C for 14 days. Visible colonies were picked from the primary selection plate and re-grown on fresh selection media for 2 additional weeks under the same conditions."}}, "data": [{"smiles": "CC(C)C1C2CCC1c1c(NC(=O)c3cn(C)nc3C(F)F)cccc12", "note": "(stereo not shown) [Isopyrazam]", "values": [{"measurement": "IC50", "setting": "[1]", "result": "5 ± 0.3", "unit": "nM"}, {"measurement": "Resistance Factors (RFs) in vivo", "setting": "[2]", "result": 10.8}, {"measurement": "Resistance Factors (RFs) in vivo", "setting": "[3]", "result": 13.6}, {"measurement": "Resistance Factors (RFs) in vivo", "setting": "[4]", "result": 16.1}, {"measurement": "Resistance Factors (RFs) in vivo", "setting": "[5]", "result": 152.2}, {"measurement": "Resistance Factors (RFs) in vivo", "setting": "[6]", "result": 7.6}, {"measurement": "Resistance Factors (RFs) in vivo", "setting": "[7]", "result": 27.6}, {"measurement": "Resistance Factors (RFs) in vivo", "setting": "[8]", "result": 4.5}, {"measurement": "Resistance Factors (RFs) in vivo", "setting": "[9]", "result": 3.8}, {"measurement": "Resistance Factors (RFs) in vivo", "setting": "[10]", "result": 3.5}, {"measurement": "Resistance Factors (RFs) in vivo", "setting": "[11]", "result": 15.0}, {"measurement": "Resistance Factors (RFs) in vivo", "setting": "[12]", "result": 15.0}, {"measurement": "Resistance Factors (RFs) in vivo", "setting": "[13]", "result": 133.9}, {"measurement": "Resistance Factors (RFs) in vivo", "setting": "[14]", "result": 464.4}, {"measurement": "Resistance Factors (RFs) in vivo", "setting": "[15]", "result": 36.5}, {"measurement": "Frequency (of resistance development)", "setting": "[16]; selection at 5× MSC, UV treatment 50 mJ cm^−2", "result": "1.4E-07"}, {"measurement": "Frequency (of resistance development)", "setting": "[16]; selection at 5× MSC, UV treatment 75 mJ cm^−2", "result": "1.7E-07"}, {"measurement": "Frequency (of resistance development)", "setting": "[16]; selection at MSC, UV treatment 50 mJ cm^−2", "result": "3.2E-07"}, {"measurement": "Frequency (of resistance development)", "setting": "[16]; selection at MSC, UV treatment 75 mJ cm^−2", "result": "4.1E-07"}]}]}
